ChEMBL document CHEMBL5325501, “Discovery of BWA-522, a First-in-Class and Orally Bioavailable PROTAC Degrader of the Androgen Receptor Targeting N-Terminal Domain for the Treatment of Prostate Cancer” (J Med Chem, 2023)
Each block holds one compound with its values, some of them ahead of it. Calls of active or inactive are those of the source. The rule behind the calls is not given here.

How the values were obtained:
PC-3 [1] = experiment: Cytotoxicity against human PC-3 cells assessed as cell death at 5 uM; assay type: toxicity, cell-based; details: pc-3, 5 µM
CWR22R [2] = experiment: Cytotoxicity against human 22Rv1 cells assessed as cell death at 5 uM; assay type: toxicity, cell-based
[3] = biological target: T1, von Hippel-Lindau disease tumor suppressor/Androgen receptor (Homo sapiens, UniProt P10275+P40337); experiment: PROTAC activity at VHL/full-length AR in human VCaP cells assessed as induction of AR degradation at 1 uM by Western blot analysis relative to control; assay type: cell-based
Target sequence in this assay (P10275 whole entry, looked up): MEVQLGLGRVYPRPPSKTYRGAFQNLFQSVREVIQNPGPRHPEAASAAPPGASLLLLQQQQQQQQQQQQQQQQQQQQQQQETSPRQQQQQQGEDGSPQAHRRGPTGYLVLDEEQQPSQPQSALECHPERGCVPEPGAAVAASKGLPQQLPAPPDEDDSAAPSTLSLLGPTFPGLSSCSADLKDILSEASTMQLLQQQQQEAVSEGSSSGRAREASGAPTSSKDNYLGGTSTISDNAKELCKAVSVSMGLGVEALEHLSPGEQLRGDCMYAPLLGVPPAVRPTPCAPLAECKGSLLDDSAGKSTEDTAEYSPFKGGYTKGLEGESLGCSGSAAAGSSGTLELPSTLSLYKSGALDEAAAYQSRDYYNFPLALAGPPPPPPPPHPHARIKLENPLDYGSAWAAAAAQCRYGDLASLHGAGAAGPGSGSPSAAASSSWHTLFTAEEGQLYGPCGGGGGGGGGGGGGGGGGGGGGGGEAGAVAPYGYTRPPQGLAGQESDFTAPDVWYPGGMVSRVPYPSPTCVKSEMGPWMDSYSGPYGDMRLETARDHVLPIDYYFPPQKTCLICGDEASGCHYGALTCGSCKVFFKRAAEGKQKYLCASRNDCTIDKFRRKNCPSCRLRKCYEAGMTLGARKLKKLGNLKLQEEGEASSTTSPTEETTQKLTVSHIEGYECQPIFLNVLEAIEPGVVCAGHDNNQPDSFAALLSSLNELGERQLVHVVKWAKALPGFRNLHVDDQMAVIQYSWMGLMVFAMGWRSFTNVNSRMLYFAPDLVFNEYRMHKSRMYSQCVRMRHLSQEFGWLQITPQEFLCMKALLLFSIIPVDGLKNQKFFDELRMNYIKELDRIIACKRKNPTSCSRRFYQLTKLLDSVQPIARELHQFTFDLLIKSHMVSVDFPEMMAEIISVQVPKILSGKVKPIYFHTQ
Target sequence in this assay (P40337 whole entry, looked up): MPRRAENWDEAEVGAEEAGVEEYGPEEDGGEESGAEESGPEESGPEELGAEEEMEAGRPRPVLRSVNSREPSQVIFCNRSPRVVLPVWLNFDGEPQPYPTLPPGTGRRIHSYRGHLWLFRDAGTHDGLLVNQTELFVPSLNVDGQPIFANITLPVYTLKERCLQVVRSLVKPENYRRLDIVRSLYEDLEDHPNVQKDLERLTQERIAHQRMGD

[4] = biological target: T1, von Hippel-Lindau disease tumor suppressor/Androgen receptor; experiment: PROTAC activity at VHL/full-length AR in human LNCaP cells assessed as induction of AR degradation at 1 uM by Western blot analysis relative to control; assay type: cell-based
Target sequence in this assay (P10275 whole entry, looked up): as the sequence (P10275 whole entry, looked up) above
Target sequence in this assay (P40337 whole entry, looked up): as the sequence (P40337 whole entry, looked up) above

[5] = biological target: T1, von Hippel-Lindau disease tumor suppressor/Androgen receptor; experiment: PROTAC activity at VHL/full-length AR in human LNCaP cells assessed as induction of AR degradation at 5 uM by Western blot analysis relative to control; assay type: cell-based
Target sequence in this assay (P10275 whole entry, looked up): as the sequence (P10275 whole entry, looked up) above
Target sequence in this assay (P40337 whole entry, looked up): as the sequence (P40337 whole entry, looked up) above

[6] = biological target: T1, von Hippel-Lindau disease tumor suppressor/Androgen receptor; experiment: PROTAC activity at VHL/full-length AR in human VCaP cells assessed as induction of AR degradation at 5 uM by Western blot analysis relative to control; assay type: cell-based
Target sequence in this assay (P10275 whole entry, looked up): as the sequence (P10275 whole entry, looked up) above
Target sequence in this assay (P40337 whole entry, looked up): as the sequence (P40337 whole entry, looked up) above

[7] = test system: von Hippel-Lindau disease tumor suppressor/Androgen receptor (Homo sapiens), P10275+P40337 [UNDEFINED MUTATION]; experiment: PROTAC activity at VHL/AR-V7 in human VCaP cells assessed as induction of AR degradation at 1 uM by Western blot analysis relative to control; assay type: cell-based
[8] = test system: von Hippel-Lindau disease tumor suppressor/Androgen receptor (Homo sapiens), P10275+P40337 [UNDEFINED MUTATION]; experiment: PROTAC activity at VHL/AR-V7 in human VCaP cells assessed as induction of AR degradation at 5 uM by Western blot analysis relative to control; assay type: cell-based
[9] = Oral bioavailability in ICR mouse at 10 mg/kg measured by LC-MS/MS analysis; assay type: ADME, organism-based; details: in vivo
[10] = AUC(0 to t) in ICR mouse at 10 mg/kg, po measured by LC-MS/MS analysis; assay type: ADME, organism-based; parameters: dose 10 mg/kg, route po; details: in vivo
[11] = Tmax in ICR mouse at 10 mg/kg, po measured by LC-MS/MS analysis; assay type: ADME, organism-based; details: in vivo
[12] = Cmax in ICR mouse at 2 mg/kg, iv measured by LC-MS/MS analysis; assay type: ADME, organism-based; parameters: dose 2 mg/kg, route iv; details: in vivo
[13] = Half-life in ICR mouse at 2 mg/kg, iv measured by LC-MS/MS analysis; assay type: ADME, organism-based; details: in vivo
[14] = AUC(0 to t) in ICR mouse at 2 mg/kg, iv measured by LC-MS/MS analysis; assay type: ADME, organism-based; parameters: dose 2 mg/kg, route iv; details: in vivo
[15] = Cmax in ICR mouse at 10 mg/kg, po measured by LC-MS/MS analysis; assay type: ADME, organism-based; parameters: dose 10 mg/kg, route po; details: in vivo
[16] = Clearance in ICR mouse at 2 mg/kg, iv measured by LC-MS/MS analysis; assay type: ADME, organism-based; details: in vivo
[17] = Half-life in ICR mouse at 10 mg/kg, po measured by LC-MS/MS analysis; assay type: ADME, organism-based; details: in vivo
[18] = Tmax in ICR mouse at 2 mg/kg, iv measured by LC-MS/MS analysis; assay type: ADME, organism-based; details: in vivo
[19] = test system: Protein cereblon/Androgen receptor (Homo sapiens), P10275+Q96SW2 [UNDEFINED MUTATION]; experiment: PROTAC activity at CRBN/AR-V7 in human […] cells assessed as induction of AR degradation at 0.03 to 1 uM incubated for 24 hrs by Western blot analysis; assay type: cell-based; details: dose 0.03-1 µM
PC-3 [20] = experiment: Cytotoxicity against human PC-3 cells assessed as cell death at high concentration incubated for 24 hrs; assay type: toxicity, cell-based; details: pc-3, 24 h
[21] = Cytotoxicity against human PC-3 cells assessed as inhibition of cell growth incubated for 6 days; assay type: toxicity, cell-based
[22] = test system: Protein cereblon/Androgen receptor (Homo sapiens), P10275+Q96SW2 [UNDEFINED MUTATION]; experiment: PROTAC activity at CRBN/AR-V7 in human 22Rv1 cells assessed as induction of AR degradation at 0.03 to 1 uM incubated for 24 hrs by Western blot analysis; assay type: cell-based; details: dose 0.03-1 µM
[23] = biological target: T2, Protein cereblon/Androgen receptor (Homo sapiens) (UniProt P10275+Q96SW2); experiment: PROTAC activity at CRBN/full-length AR in human 22Rv1 cells assessed as induction of AR degradation at 0.03 to 1 uM incubated for 24 hrs by Western blot analysis; assay type: cell-based; details: dose 0.03-1 µM
CWR22R [24] = experiment: Cytotoxicity against human 22Rv1 cells assessed as cell death at high concentration incubated for 24 hrs; assay type: toxicity, cell-based
[25] = biological target: T2, Protein cereblon/Androgen receptor (Homo sapiens); experiment: PROTAC activity at CRBN/full-length AR in human […] cells assessed as induction of AR degradation at 0.03 to 1 uM incubated for 24 hrs by Western blot analysis; assay type: cell-based; details: dose 0.03-1 µM
CWR22R [26] = experiment: Antiproliferative activity against enzalutamide-resistant human 22Rv1 cells assessed as reduction in cell viability incubated for 6 days by CCK-8 assay; assay type: functional, cell-based; details: 22Rv1, 144 h
CWR22R [27] = experiment: Inhibition of colony formation in human 22Rv1 cells at 1 to 10 uM incubated for 2 weeks by crystal violet staining based analysis; assay type: functional, cell-based; details: dose 1-10 µM
LNCaP [28] = experiment: Antitumor activity against human LNCaP cells xenografted in NOD SCID mouse assessed as tumor growth inhibition at 180 mg/kg, po administered daily for 4 weeks relative to control; assay type: functional; details: 672 h, read-out: TGI
LNCaP [29] = experiment: Antiproliferative activity against human LNCaP cells assessed as reduction in cell viability incubated for 6 days by CCK-8 assay; assay type: functional, cell-based; details: 144 h
VCaP = experiment: Antiproliferative activity against human VCaP cells assessed as reduction in cell viability incubated for 6 days by CCK-8 assay; assay type: functional, cell-based; details: 144 h
LNCaP [30] = experiment: Inhibition of colony formation in human LNCaP cells at 1 to 10 uM incubated for 2 weeks by crystal violet staining based analysis; assay type: functional, cell-based; details: dose 1-10 µM
LNCaP [31] = experiment: Antitumor activity against human LNCaP cells xenografted in NOD SCID mouse assessed as tumor growth inhibition at 10 mg/kg, po administered daily for 4 weeks relative to control; details: 672 h, read-out: TGI
RWPE-1 = experiment: Cytotoxicity against human RWPE-1 cells assessed as reduction in cell viability incubated for 6 days by CCK8 assay; assay type: toxicity, cell-based; details: rwpe-1, 144 h, time 6 day
[32] = biological target: T1, von Hippel-Lindau disease tumor suppressor/Androgen receptor; experiment: PROTAC activity at VHL/AR-V7 in human 22Rv1 cells assessed as induction of AR degradation by Immunoblot analysis; assay type: cell-based
Target sequence in this assay (P10275 whole entry, looked up, change not shown): as the sequence (P10275 whole entry, looked up) above
Target sequence in this assay (P40337 whole entry, looked up, change not shown): as the sequence (P40337 whole entry, looked up) above

Protein cereblon/Androgen receptor (Homo sapiens), P10275+Q96SW2 [UNDEFINED MUTATION], sequence (P10275 whole entry, looked up, stated change not applied): as the sequence (P10275 whole entry, looked up) above
Protein cereblon/Androgen receptor (Homo sapiens), P10275+Q96SW2 [UNDEFINED MUTATION], sequence (Q96SW2 whole entry, looked up, stated change not applied): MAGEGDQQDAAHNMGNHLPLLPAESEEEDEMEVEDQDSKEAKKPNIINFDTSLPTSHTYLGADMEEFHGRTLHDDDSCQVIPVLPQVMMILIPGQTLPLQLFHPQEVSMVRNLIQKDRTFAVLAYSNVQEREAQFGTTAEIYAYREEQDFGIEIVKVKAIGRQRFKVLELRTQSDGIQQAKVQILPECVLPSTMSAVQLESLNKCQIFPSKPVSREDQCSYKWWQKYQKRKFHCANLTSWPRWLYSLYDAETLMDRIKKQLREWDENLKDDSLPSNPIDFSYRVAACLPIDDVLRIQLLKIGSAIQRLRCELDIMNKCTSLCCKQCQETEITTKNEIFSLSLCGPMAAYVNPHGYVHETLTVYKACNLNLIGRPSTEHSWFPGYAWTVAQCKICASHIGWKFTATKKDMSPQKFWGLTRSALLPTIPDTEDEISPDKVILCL
von Hippel-Lindau disease tumor suppressor/Androgen receptor (Homo sapiens), P10275+P40337 [UNDEFINED MUTATION], sequence (P10275 whole entry, looked up, change not shown): as the sequence (P10275 whole entry, looked up) above
von Hippel-Lindau disease tumor suppressor/Androgen receptor (Homo sapiens), P10275+P40337 [UNDEFINED MUTATION], sequence (P40337 whole entry, looked up, change not shown): as the sequence (P40337 whole entry, looked up) above
T2 sequence (P10275 whole entry, looked up): as the sequence (P10275 whole entry, looked up) above
T2 sequence (Q96SW2 whole entry, looked up): as the sequence (Q96SW2 whole entry, looked up, stated change not applied) above

- bioavailability [9]: 7.8%
- AUC(0-t) [10]: 113 ng·h/mL
- Tmax [11]: 0.2 h
- Cmax [12]: 518 ng/mL
- half-life [13]: 0.5 h
- AUC(0-t) [14]: 303 ng·h/mL
- Cmax [15]: 130 ng/mL
- clearance [16]: 111 mL/min/kg
- half-life [17]: 1.8 h
- Tmax [18]: 6 min
Compound: CC(C)(c1ccc(OCC2CCN(C(=O)CCCNc3ccc4c(c3)C(=O)N(C3CCC(=O)NC3=O)C4=O)CC2)cc1)c1ccc(OC[C@H](O)CCl)cc1 (stereo not given in full)

- Activity [19]: inactive
- Activity [22]: inactive
- Activity [23]: inactive
- Activity [25]: inactive
Compound: CC(C)(c1ccc(OCC2CCN(CC3CCN(C4CCN(c5ccc6c(c5)C(=O)N(C5CCC(=O)NC5=O)C6=O)CC4)CC3)CC2)cc1)c1ccc(OC[C@H](O)CCl)cc1 (stereo not given in full)
- Activity (PC-3 [20]): Toxic
- IC50 at 6 days [21]: 1030 nM
- Activity (CWR22R [24]): Toxic

- IC50 (LNCaP [29]): > 30000 nM
- IC50 (VCaP): > 30000 nM
Compound: CC(C)(c1ccc(OC[C@H](O)CO)cc1)c1ccc(OC[C@H](O)CCl)cc1
- IC50 (CWR22R [26]): > 30000 nM
- inhibition (CWR22R [27]): inactive
- inhibition in vivo at 180 mg/kg (LNCaP [28]): 43%
- inhibition (LNCaP [30]): inactive

- Activity [3]: 18.4%
- Activity [4]: 17.6%
- Activity [5]: 27.9%
- Activity [6]: 31%
- Activity [7]: 45.9%
- Activity [8]: 63.3%
Compound: Cc1ncsc1-c1ccc(CNC(=O)[C@@H]2C[C@@H](O)CN2C(=O)[C@@H](NC(=O)Cn2cc(CCCOc3ccc(C(C)(C)c4ccc(OC[C@H](O)CCl)cc4)cc3)nn2)C(C)(C)C)cc1

- Activity [3]: 48.9%
- Activity [4]: 27.5%
- Activity [5]: 31.9%
- Activity [6]: 39.6%
- Activity [7]: 38.1%
- Activity [8]: 48.2%
Compound: Cc1ncsc1-c1ccc(CNC(=O)[C@@H]2C[C@@H](O)CN2C(=O)[C@@H](NC(=O)Cn2cc(CCCCCOc3ccc(C(C)(C)c4ccc(OC[C@H](O)CCl)cc4)cc3)nn2)C(C)(C)C)cc1

- EC50 [32]: 370 nM
Compound: Cc1ncsc1-c1ccc([C@H](C)NC(=O)[C@@H]2C[C@@H](O)CN2C(=O)[C@@H](NC(=O)CCCCNC(=O)COc2c(-c3csc(N4CCOCC4)n3)ccc(F)c2F)C(C)(C)C)cc1

Continued, compound first:

Compound: CC(C)(c1ccc(OCC2CCN(CC3CCN(CC4CCN(c5cccc6c5C(=O)N(C5CCC(=O)NC5=O)C6=O)CC4)CC3)CC2)cc1)c1ccc(OC[C@H](O)CCl)cc1 (stereo not given in full)
- Activity (PC-3 [1]): Toxic
- Activity (CWR22R [2]): Toxic

Compound: Cc1ncsc1-c1ccc(CNC(=O)[C@@H]2C[C@@H](O)CN2C(=O)[C@@H](NC(=O)Cn2cc(CCCCOc3ccc(C(C)(C)c4ccc(OC[C@H](O)CCl)cc4)cc3)nn2)C(C)(C)C)cc1
- Activity [3]: 43.2%
- Activity [4]: 22%
- Activity [5]: 36.6%
- Activity [6]: 53.5%
- Activity [7]: 56.4%
- Activity [8]: 59.5%

Compound: CC(C)(c1ccc(OCC2CCN(CC3CN(C4CCN(c5cccc6c5C(=O)N(C5CCC(=O)NC5=O)C6=O)CC4)C3)CC2)cc1)c1ccc(OC[C@H](O)CCl)cc1 (stereo not given in full)
- bioavailability [9]: 12.3%
- AUC(0-t) [10]: 332 ng·h/mL
- Tmax [11]: 2 h
- Cmax [12]: 662 ng/mL
- half-life [13]: 13.6 h
- AUC(0-t) [14]: 645 ng·h/mL
- Cmax [15]: 47 ng/mL
- clearance [16]: 38.6 mL/min/kg
- half-life [17]: 20.5 h
- Tmax [18]: 6 min

Compound: CC(C)(c1ccc(OCC2CCN(CC3CCN(CC4CCN(c5ccc6c(c5)C(=O)N(C5CCC(=O)NC5=O)C6=O)CC4)CC3)CC2)cc1)c1ccc(OC[C@H](O)CCl)cc1 (stereo not given in full)
- Activity [19]: inactive
- Activity (PC-3 [20]): Toxic
- IC50 at 6 days [21]: 1370 nM
- Activity [22]: inactive
- Activity [23]: inactive
- Activity (CWR22R [24]): Toxic
- Activity [25]: inactive

Compound: CNC(=O)c1ccc(N2C(=S)N(c3ccc(C#N)c(C(F)(F)F)c3)C(=O)C2(C)C)cc1F [ENZALUTAMIDE]
- inhibition in vivo at 10 mg/kg (LNCaP [31]): 72%
- Activity (RWPE-1): Non-Toxic

Compound: CC(C)(c1ccc(OCC2CCN(CC3CCN(C4CCN(c5cccc6c5C(=O)N(C5CCC(=O)NC5=O)C6=O)CC4)CC3)CC2)cc1)c1ccc(OC[C@H](O)CCl)cc1 (stereo not given in full)
- Activity (PC-3 [1]): Toxic
- Activity (CWR22R [2]): Toxic
